Results as given in publication PMC12606464, “Investigating NFE2L1 activators for targeted protein aggregate clearance: a follow-up study” (RSC Medicinal Chemistry, 2025).

Tested on: NFE2L1/TCF11/NRF1, SQSTM1/p62, LC3, NQO1 and HSPA1A/HSP70-1 protein levels
Experiment: Immunoblot analysis in HEK293 cells
Type: cell-based, human
Details: for LC3-I protein level, Treatment geometric mean / LC3-II protein level, Treatment geometric mean / HSPA1A protein level, Treatment geometric mean / LC3-total protein level, Treatment geometric mean / NFE2L1 protein level, Treatment geometric mean / NQO1 protein level, Treatment geometric mean / SQSTM1 protein level, Treatment geometric mean: immunoblot quantification; for LC3-I protein level, Treatment geometric mean / LC3-II protein level, Treatment geometric mean / HSPA1A protein level, Treatment geometric mean / LC3-total protein level, Treatment geometric mean / NFE2L1 protein level, Treatment geometric mean / NQO1 protein level, Treatment geometric mean / SQSTM1 protein level, Treatment geometric mean / HSPA1A protein level, geometric mean of ratios / LC3-II protein level, geometric mean of ratios / LC3-total protein level, geometric mean of ratios / NFE2L1 protein level, geometric mean of ratios / NQO1 protein level, geometric mean of ratios / SQSTM1 protein level, geometric mean of ratios: Fig. 2B; for LC3-I protein level, Treatment geometric mean: control geometric mean = 0.24; for LC3-II protein level, Treatment geometric mean: control geometric mean = 0.73; for HSPA1A protein level, Treatment geometric mean / LC3-total protein level, Treatment geometric mean / NFE2L1 protein level, Treatment geometric mean / NQO1 protein level, Treatment geometric mean / SQSTM1 protein level, Treatment geometric mean: control geometric mean = 1; for HSPA1A protein level, geometric mean of ratios / LC3-II protein level, geometric mean of ratios / LC3-total protein level, geometric mean of ratios / NFE2L1 protein level, geometric mean of ratios / NQO1 protein level, geometric mean of ratios / SQSTM1 protein level, geometric mean of ratios: ratio paired t test, treatment vs control
Experimental: Fig. 2 (A) qPCRs of HEK293 cells treated with RUN compounds (7.5 μM) for 16 hours. The extracted RNA was reverse transcribed into cDNA and utilized for RT-qPCR (primers are listed in the SI, Table S1); the mRNA levels of RPLP0 were used for normalization. The experiment was performed in three biological replicates (n = 3). (B) Immunoblot analysis of proteins NFE2L1/TCF11/NRF1, SQSTM1/p62, LC3, NQO1 and HSPA1A/HSP70-1 in HEK293 cells after 16 h treatment with 7.5 μM RUN compounds. The protein levels were quantified by measuring the integrated fluorescence of the corresponding protein bands and normalized to the β-actin load. The full-length (F) and cleaved (C) forms of NFE2L1 were analyzed together. The experiment was performed in four biological replicates (n = 4) except for NFE2L1 (n = 3). (A and B) Results of RUN compounds were compared to the DMSO control using ratio paired t-tests corrected for multiple comparisons with Holm–Šídák's method (α = 0.05). *p < 0.05, **p < 0.01. Detailed results of the analysis are shown in SI Tables S5 and S6.
To confirm NFE2L1-controlled gene expression at the protein level, western blot analysis was performed. HEK293 cells were treated with selected RUN compounds for 16 hours, after which the protein levels were analyzed. […] Similar observations were made with SQSTM1 and LC3. As mentioned earlier, SQSTM1 directly binds to the LC3 region to facilitate the delivery of proteins for autophagic clearance.[62,64,65] Within cells, LC3 undergoes cleavage to form its cytosolic version, LC3-I, which is further converted into its membrane-bound form, LC3-II, which is anchored in autophagosomal membranes.[60,66] Consequently, both SQSTM1 and LC3 are widely regarded as markers of autophagy.[65] […] The increase in the LC3-II form indicates active autophagic processes. […]
HEK293 cells were treated with 7.5 µM RUN compounds for 16 h, then harvested and resuspended in lysis buffer [50 mM HEPES (pH 7.5), 5 mM EDTA, 150 mM NaCl, 2 mM ATP, and 1% Triton]. Cell lysates were subsequently centrifuged at 15,000 rpm and 4°C for 15 minutes, and then a protein concentration was determined using the Pierce BCA Protein Assay Kit (Thermo Fisher Scientific). Cell lysates were boiled for 5 min at 95 °C in a 6xSDS sample buffer [350 mM Tris-HCl (pH 6.8), 350 mM SDS, 30% (v/v) glycerol, 4% β-mercaptoethanol, 180 µM bromophenol blue]. Prepared samples (15 µg of proteins) were separated by SDS-PAGE (10, 12, or 16% Bis-Tris gels; 50 V for 5 min, then 200 V) and transferred onto a 0.45 µm nitrocellulose membrane (Bio-Rad). For LC3 level analysis, the 0.2 µm nitrocellulose membrane (Bio-Rad) was used. Membranes were blocked in Intercept® (TBS) Blocking Buffer (LI-COR Biosciences) for 1 h at room temperature and then incubated with primary antibodies in Intercept® (TBS) Blocking Buffer with 0.1% Tween-20 overnight at 4°C. Used primary antibodies: anti-NFE2L1/TCF11/SKN1/NRF1 monoclonal antibody (Cell Signalling; #8052; anti-NQO1 polyclonal antibody (Sigma-Aldrich; # HPA007308; 1:5.000), anti-LC3 antibody […]
(Sigma-Aldrich; #L8918), anti-p62/SQSTM antibody (Sigma-Aldrich; #P0067), anti-β-actin monoclonal antibody (Sigma-Aldrich; #A5441; 1:10.000). The resulting membranes were washed and incubated with near-infrared fluorophore-conjugated goat anti-mouse IRDye […]
COR Biosciences; #926-32211; 1:15.000) for 1 h at room temperature. Membranes were imaged using Odyssey® M NIR Imaging System (LI-COR Biosciences) and quantified using Image Studio software v. 6.0 (LI-COR Biosciences). The protein levels were quantified by measuring the integrated fluorescence of the corresponding protein bands and normalized to the β-actin loading control. Changes in protein levels after treatment with RUN compounds were analyzed using paired t-tests with correction for multiple comparisons using the Holm-Šídák method (α = 0.05) in GraphPad Prism (v 10.6.1).
2.7 Proteasome activity assay […]

[1] = HEK293, 7.5 μM, 16 h, versus DMSO

| SMILES | LC3-I protein level, Treatment geometric mean | LC3-II protein level, Treatment geometric mean | HSPA1A protein level, Treatment geometric mean | LC3-total protein level, Treatment geometric mean | NFE2L1 protein level, Treatment geometric mean | NQO1 protein level, Treatment geometric mean | SQSTM1 protein level, Treatment geometric mean | HSPA1A protein level, geometric mean of ratios | LC3-II protein level, geometric mean of ratios | LC3-total protein level, geometric mean of ratios | NFE2L1 protein level, geometric mean of ratios | NQO1 protein level, geometric mean of ratios | SQSTM1 protein level, geometric mean of ratios | NQO1 protein level [1] | Total LC3 protein level [1] |
| --- | --- | --- | --- | --- | --- | --- | --- | --- | --- | --- | --- | --- | --- | --- | --- |
| COc1ccc(/C=C2\CC(N)C/C(=C\c3ccc(OC)c(OC)c3)C2=O)cc1OC (centres unmarked) [RUN-81] | 0.29 | 1.57 | 3.49 | 1.88 | 6.78 | 3.12 | 3.55 | 3.49 | 2.14 | 1.88 | 6.78 | 3.12 | 3.55 | – | – |
| COc1ccc(/C=C2\CC(NC(=O)c3ccccn3)C/C(=C\c3ccc(OC)c(OC)c3)C2=O)cc1OC (centres unmarked) [RUN-94] | 0.38 | 1.72 | 3.12 | 2.14 | 14.37 | 4.16 | 5.55 | 3.12 | 2.35 | 2.14 | 14.37 | 4.16 | 5.55 | notably boosting | significantly elevate |
| COc1ccc(/C=C2\CC(NC(=O)C3CCCC3)C/C(=C\c3ccc(OC)c(OC)c3)C2=O)cc1OC (centres unmarked) [RUN-89] | 0.26 | 1.88 | 4.38 | 2.16 | 13.41 | 3.31 | 4.74 | 4.38 | 2.56 | 2.16 | 13.41 | 3.31 | – | – | significantly elevate |
